Laboratory results published in PMC12785453, “Oral Fluid Concentrations and Pharmacological Effects of Clephedrone and Methylone in Humans” (International Journal of Molecular Sciences, 2025).

Tested on: healthy volunteers
Assay: Subjective effects, visual analog scales (VAS), clephedrone study
Type: in vivo, humans
From the text: The study evaluating the acute effects of clephedrone was designed as a non-controlled, prospective, observational, and naturalistic study. The procedures and evaluations included in this study have been described in previous studies evaluating other synthetic cathinones (mephedrone, methylone, alpha-PVP, NEP, HEXEN), phenethylamines (2C-B and 2C-E), or synthetic cannabinoids (JWH-122, JWH-210, UR-144).
This study consisted of one experimental session in which participants (N = 8; 6 women, 2 men) selected their oral dose of clephedrone based on their drug use experience and preferences. According to their dose selection, 3 women and 1 man ingested 100 mg of clephedrone, while the remaining 3 women and 1 man opted for a higher dose of 150 mg. […] Participants were recruited by word of mouth by the harm reduction organization Energy Control in Barcelona (Associació Benestar i Desenvolupament, ABD).
Subjective effects were evaluated with visual analog scales (VAS), the short form of the Addiction Research Center Inventory (ARCI), and the Evaluation of Subjective Effects of Substances with Abuse Potential questionnaire (VESSPA-SSE). In addition, the Sensitivity to Drug Reinforcement Questionnaire (SDRQ) and a pharmacological identification class questionnaire were used in the controlled study administering methylone.
VAS encompassed several adjectives that participants had to rate from “not at all” (0 mm) to “extremely” (100 mm) according to their sensations. This scale included 28 items: intensity, stimulated, high, good effects, bad effects, liking, changes in distances, changes in colors, changes in shapes, changes in lights, hallucinations (seeing lights or spots), hallucinations (seeing things, animals, insects, or people), changes in hearing, hallucinations (hearing sounds or voices), drowsiness, concentration, dizziness, confusion, different or changed body feeling, unreal body feeling, different surroundings, unreal surroundings, open, trust, feeling close to others, I want to be with other people, I want to hug someone, sexual desire, and sexual arousal.
Participants included in the naturalistic clephedrone study completed VAS at baseline, 0.50, 1, 1.5, 2, 3, 4, and 5 h, and ARCI and VESSPA at baseline, 1, 2, 3, 4, and 5 h after self-administering clephedrone. In the controlled study, VAS was performed at baseline and 0.25, 0.50, 0.75, 1, 1.5, 2, 3, 4, 6, 8, 10, and 24 h, and ARCI and VESSPA at baseline and 1, 2, 3, 4, 6, 8, and 10 h after administering methylone. Participants completed SDRQ and VAS sexual desire and arousal at baseline, 1 and 10 h, and the pharmacological class identification questionnaire at 8 h.
For statistical analysis, values of physiological (SBP, DBP, HR, and T) and subjective effects (VAS, ARCI, and VESSPA-SSE) were baseline–adjusted. Maximum effects (Emax) and the time needed to reach maximum effects (Tmax) were determined, and the area under the curve up to 5 h (AUC0–5h) for clephedrone and up to 6 h (AUC0–6h) for methylone was calculated using the trapezoidal rule. Emax and AUC values are presented as mean ± standard deviation, whereas Tmax is presented in median (range).
To find possible significant changes through the time course compared to baseline, a Dunnett multiple comparison test was carried out to compare each time point with baseline in both drug conditions. For clephedrone the comparisons were 0–0.5 h, 0–1 h, 0–1.5 h, 0–2 h, 0–3 h, 0–4 h and 0–5 h, and for methylone this analysis included 0–0.25 h, 0–0.5 h, 0–0.75 h, 0–1 h, 0–1.5 h, 0–2 h, 0–3 h, 0–4 h and 0–6 h. Given their different study designs, no comparative analysis between the time courses of both synthetic cathinones was conducted.

[1] = 100 or 150 mg oral, n=8, listed as clephedrone
[2] = AUC0–5h, 100 or 150 mg oral, n=8

For CNC(C)C(=O)c1ccc(Cl)cc1 (centres unmarked) [Clephedrone, 4-chloromethcathinone], the Hallucinogenic effects (100 or 150 mg oral) was “did not evidence any hallucinogenic effects”, the “Tmax of the high-scoring VAS subjective effects” value (100 or 150 mg oral) was 3 h and the “VAS Bad effects Emax” value (100 or 150 mg oral, n=8) was 0.38 ± 0.74 mm. The “VAS Changes in colors Emax” value (100 or 150 mg oral, n=8) was 1.13 ± 2.80 mm, the “VAS Changes in colors Tmax” value (100 or 150 mg oral, n=8) was 0.0 (0.0–3.0) h and the “VAS Changes in distances Emax” value (100 or 150 mg oral, n=8) was 1.88 ± 4.55 mm. For the same molecule, the “VAS Changes in distances Tmax” value (100 or 150 mg oral, n=8) was 0.0 (0.0–2.0) h, the “VAS Changes in hearing Emax” value (100 or 150 mg oral, n=8) was 8.75 ± 16.24 mm and the “VAS Changes in hearing Tmax” value (100 or 150 mg oral, n=8) was 0.0 (0.0–4.0) h. The “VAS Changes in lights Emax” value (100 or 150 mg oral, n=8) was 4.75 ± 9.79 mm, the “VAS Changes in lights Tmax” value (100 or 150 mg oral, n=8) was 0.0 (0.0–4.0) h and the “VAS Concentration Emax” value (100 or 150 mg oral, n=8) was 22.13 ± 16.65 mm. The “VAS Confusion Emax” value (100 or 150 mg oral, n=8) was 3.00 ± 3.82 mm, the “VAS Different or changed body feeling Emax” value (100 or 150 mg oral, n=8) was 39.63 ± 22.15 mm and the “VAS Different surroundings Emax” value (100 or 150 mg oral, n=8) was 13.75 ± 23.50 mm. The “VAS Dizziness Emax” value (100 or 150 mg oral, n=8) was 1.13 ± 1.81 mm, the “VAS Drowsiness Emax” value (100 or 150 mg oral, n=8) was 14.25 ± 22.86 mm and the “VAS Feeling close to others Emax” value (100 or 150 mg oral, n=8) was 53.38 ± 13.79 mm. For the same molecule, the “VAS Good effects Emax” value (100 or 150 mg oral, n=8) was 58.50 ± 20.46 mm, the “VAS High Emax” value (100 or 150 mg oral, n=8) was 54.25 ± 20.19 mm and the “VAS I want to be with other people Emax” value (100 or 150 mg oral, n=8) was 34.63 ± 28.16 mm. For the same molecule, the “VAS I want to hug someone Emax” value (100 or 150 mg oral, n=8) was 37.63 ± 28.01 mm, the “VAS Intensity Emax” value (100 or 150 mg oral, n=8) was 49.13 ± 17.18 mm and the “VAS Liking Emax” value (100 or 150 mg oral, n=8) was 59.00 ± 18.56 mm. The “VAS Open Emax” value (100 or 150 mg oral, n=8) was 49.25 ± 18.78 mm, the “VAS Sexual arousal Emax” value (100 or 150 mg oral, n=8) was 20.13 ± 18.70 mm and the “VAS Sexual desire Emax” value (100 or 150 mg oral, n=8) was 20.63 ± 19.60 mm. For the same molecule, the “VAS Stimulated Emax” value (100 or 150 mg oral, n=8) was 48.75 ± 14.47 mm, the “VAS Trust Emax” value (100 or 150 mg oral, n=8) was 53.75 ± 20.62 mm and the “VAS Unreal body feeling Emax” value (100 or 150 mg oral, n=8) was 2.13 ± 4.16 mm. The “VAS Unreal surroundings Emax” value (100 or 150 mg oral, n=8) was 1.50 ± 4.24 mm, the “VAS Concentration Emax” value [1] was “exceeding 20 mm” and the “VAS Different or changed body feeling Emax” value [1] was over 30 mm. The “VAS Feeling close to others Emax” value [1] was “exceeding 40 mm”, the “VAS Good effects Emax” value [1] was “exceeding 40 mm” and the “VAS High Emax” value [1] was “exceeding 40 mm”. For the same molecule, the “VAS I want to be with other people Emax” value [1] was over 30 mm, the “VAS I want to hug someone Emax” value [1] was over 30 mm and the “VAS Intensity Emax” value [1] was “exceeding 40 mm”. The “VAS Liking Emax” value [1] was “exceeding 40 mm”, the “VAS Open Emax” value [1] was “exceeding 40 mm” and the “VAS Sexual arousal Emax” value [1] was “exceeding 20 mm”. For the same molecule, the “VAS Sexual desire Emax” value [1] was “exceeding 20 mm”, the “VAS Stimulated Emax” value [1] was “exceeding 40 mm” and the “VAS Trust Emax” value [1] was “exceeding 40 mm”. The “VAS Bad effects AUC0-5/6 h” value [2] was 0.38 ± 0.74 mm·h, the “VAS Changes in colors AUC0-5/6 h” value [2] was 1.75 ± 4.75 mm·h and the “VAS Changes in distances AUC0-5/6 h” value [2] was 1.53 ± 3.76 mm·h. The “VAS Changes in hearing AUC0-5/6 h” value [2] was 12.44 ± 23.03 mm·h, the “VAS Changes in lights AUC0-5/6 h” value [2] was 6.41 ± 14.74 mm·h and the “VAS Concentration AUC0-5/6 h” value [2] was 45.34 ± 33.03 mm·h. For the same molecule, the “VAS Confusion AUC0-5/6 h” value [2] was 3.72 ± 5.72 mm·h, the “VAS Different or changed body feeling AUC0-5/6 h” value [2] was 87.38 ± 52.74 mm·h and the “VAS Different surroundings AUC0-5/6 h” value [2] was 25.56 ± 52.75 mm·h. For the same molecule, the “VAS Dizziness AUC0-5/6 h” value [2] was 0.97 ± 1.49 mm·h, the “VAS Drowsiness AUC0-5/6 h” value [2] was 13.25 ± 20.39 mm·h and the “VAS Feeling close to others AUC0-5/6 h” value [2] was 116.56 ± 42.59 mm·h. The “VAS Good effects AUC0-5/6 h” value [2] was 129.66 ± 50.22 mm·h, the “VAS High AUC0-5/6 h” value [2] was 118.63 ± 44.24 mm·h and the “VAS I want to be with other people AUC0-5/6 h” value [2] was 62.94 ± 49.65 mm·h. For the same molecule, the “VAS I want to hug someone AUC0-5/6 h” value [2] was 80.38 ± 74.45 mm·h, the “VAS Intensity AUC0-5/6 h” value [2] was 112.03 ± 34.05 mm·h and the “VAS Liking AUC0-5/6 h” value [2] was 134.09 ± 48.13 mm·h. The “VAS Open AUC0-5/6 h” value [2] was 112.56 ± 51.16 mm·h, the “VAS Sexual arousal AUC0-5/6 h” value [2] was 44.44 ± 49.02 mm·h and the “VAS Sexual desire AUC0-5/6 h” value [2] was 44.69 ± 48.58 mm·h. For the same molecule, the “VAS Stimulated AUC0-5/6 h” value [2] was 104.81 ± 29.68 mm·h, the “VAS Trust AUC0-5/6 h” value [2] was 126.91 ± 60.79 mm·h and the “VAS Unreal body feeling AUC0-5/6 h” value [2] was 3.13 ± 6.75 mm·h. For the same molecule, the “VAS Unreal surroundings AUC0-5/6 h” value [2] was 1.50 ± 4.24 mm·h and the “Time of peak pharmacological effects” value (oral) was 3 h.
